One molecule from PMC3244877 (2009) can be followed below.

The target in this experiment is T1, HsEg5 (Homo sapiens, UniProt P52732).
T1 sequence (P52732 1-370): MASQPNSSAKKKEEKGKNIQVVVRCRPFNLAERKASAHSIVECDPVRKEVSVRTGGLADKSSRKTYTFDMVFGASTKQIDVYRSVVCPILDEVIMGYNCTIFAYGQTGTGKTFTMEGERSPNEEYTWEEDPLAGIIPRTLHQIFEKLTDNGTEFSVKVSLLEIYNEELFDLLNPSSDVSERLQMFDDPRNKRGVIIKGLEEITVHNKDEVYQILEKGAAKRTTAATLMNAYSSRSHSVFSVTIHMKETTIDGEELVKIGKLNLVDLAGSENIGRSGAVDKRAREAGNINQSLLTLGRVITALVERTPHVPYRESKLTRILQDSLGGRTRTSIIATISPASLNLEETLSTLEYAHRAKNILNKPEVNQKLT
In words: NADH-coupled basal ATPase assay, Lineweaver-Burk. The experiment is classed as biochemical.

On to `[Mo]` [NSC 622124], for which the inhibitory constant (Ki) was 550 nM. This lies in the sub-micromolar range.
